Measurements published in patent US20110046066A1, “INHIBITORS OF IAP” (GENENTECH, INC., priority 2008, published 2011).

Columns and labels:
[1] = molecular target: T1, X-IAP BIR3 (Homo sapiens, UniProt P98170); assay: Fluorescence polarization peptide binding assay, X-IAP BIR3; details: for IC50: 0.5 μM X-IAP BIR3, 5 nM AVP-diPhe-FAM probe, one hour incubation; for Ki: determined from the IC50 values (procedure of Keating et al.)
T1 construct: 0.5 μM X-IAP BIR3
Method: (§1) Polarization experiments were performed on an Analyst HT 96-384 reader (Molecular Devices Corp.) in order to determine dissociation constants (Kd) between IAP protein BIR domains and the fluorescent probe. Samples for fluorescence polarization affinity experiments were prepared by addition of serial dilutions of IAP BIR domains (C-IAP1 BIR3, C-IAP-2 BIR3, ML/X-IAP chimera MLXBIR3SG and X-IAP BIR3) in polarization buffer (50 mM Tris [pH 7.2], 120 mM NaCl, 1% bovine globulins 5 mM DTT and 0.05% octylglucoside) to 5-carboxyflourescein-conjugated AVPdi-Phe-NH2 (AVP-diPhe-FAM) at 5 nM final concentration.
(§2) The reactions were read after an incubation time of 1 hour at room temperature with standard cut-off filters for the fluorescein fluorophore (λex=485 nm; λem=530 nm) in 384-well black plates (Molecular Devices Corp.). Fluorescence polarization values were plotted as a function of the protein concentration, and the effective concentration 50 (EC50) values were obtained by fitting the data to a 4-parameter equation using Kaleidagraph software (Synergy software, Reading, Pa.). The apparent Kd values were determined from the EC50 values. Inhibition Constants (Ki values) for the antagonists were determined by the addition of 0.06 μM MLXBIR3SG, 0.5 μM X-IAP BIR3, 0.2 μM C-IAP1 BIR3 or 0.4 μM C-IAP-2 BIR3 to wells containing 5 nM of the AVP-diPhe-FAM probe as well as 1:3 serial dilutions of antagonist compounds starting at a concentration of 200 μM in the polarization buffer. Samples were read after an incubation time of one hour. Fluorescence polarization values were plotted as a function of the antagonist concentration, and the IC50 values were obtained by fitting the data to a 4-parameter equation using Kaleidagraph software (Synergy software, Reading, Pa.). Ki values for the antagonists were determined from the IC50 values according to the procedure of Keating, S. M., Marsters, J, Beresini, M., Ladner, C., Zioncheck, K., Clark, K., Arellano, F., and Bodary, S. (2000) in Proceedings of SPIE: In Vitro Diagnostic Instrumentation (Cohn, G. E., Ed.) pp 128-137, Bellingham, Wash. […] All values are micromolar.

[2] = molecular target: T2, C-IAP2 BIR3 (Homo sapiens, UniProt Q13489); assay: Fluorescence polarization peptide binding assay, C-IAP2 BIR3; details: for IC50: 0.4 μM C-IAP-2 BIR3, 5 nM AVP-diPhe-FAM probe, one hour incubation; for Ki: determined from the IC50 values (procedure of Keating et al.)
T2 construct: 0.4 μM C-IAP-2 BIR3
T2 sequence (Q13489 238-349 limits assumed): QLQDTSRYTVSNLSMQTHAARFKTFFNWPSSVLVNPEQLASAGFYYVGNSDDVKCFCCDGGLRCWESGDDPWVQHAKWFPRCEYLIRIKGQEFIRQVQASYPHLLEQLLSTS
Method: as §1, §2

[3] = molecular target: T3, ML/X-IAP chimera MLXBIR3SG (Homo sapiens, UniProt Q96CA5, S150G); assay: Fluorescence polarization peptide binding assay, MLXBIR3SG; details: for IC50: 0.06 μM MLXBIR3SG, 5 nM AVP-diPhe-FAM probe, one hour incubation; for Ki: determined from the IC50 values (procedure of Keating et al.)
T3 sequence (Q96CA5 with tags, fused parts or gaps S150G): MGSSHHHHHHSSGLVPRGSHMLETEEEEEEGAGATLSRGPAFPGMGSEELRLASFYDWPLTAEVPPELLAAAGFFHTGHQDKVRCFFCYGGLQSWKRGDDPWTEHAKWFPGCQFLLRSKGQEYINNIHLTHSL
Method: The following fluorescence polarization experiments used a chimeric BIR domain referred to as MLXBIR3SG in which 11 of 110 residues correspond to those found in XIAP BIR3, while the remainder correspond to ML-IAP BIR. […] The improved caspase-9 inhibition of the chimeric BIR domain MLXBIR3SG has been correlated with increased inhibition of doxorubicin-induced apoptosis when transfected into MCF7 cells.
as §1, §2

[4] = molecular target: T4, C-IAP1 BIR3 (Homo sapiens, UniProt Q13490); assay: Fluorescence polarization peptide binding assay, C-IAP1 BIR3; details: for IC50: 0.2 μM C-IAP1 BIR3, 5 nM AVP-diPhe-FAM probe, one hour incubation; for Ki: determined from the IC50 values (procedure of Keating et al.)
T4 construct: 0.2 μM C-IAP1 BIR3
T4 sequence (Q13490 253-363 limits assumed): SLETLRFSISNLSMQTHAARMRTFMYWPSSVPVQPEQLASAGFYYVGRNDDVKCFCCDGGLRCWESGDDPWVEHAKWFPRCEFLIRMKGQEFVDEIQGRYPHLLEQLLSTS
Method: as §1, §2

T1 sequence (P98170 241-356 limits assumed): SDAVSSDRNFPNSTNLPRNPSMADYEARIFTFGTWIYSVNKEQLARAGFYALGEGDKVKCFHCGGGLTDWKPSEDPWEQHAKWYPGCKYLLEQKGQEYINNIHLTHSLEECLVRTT

CN[C@@H](C)C(=O)N[C@H](C(=O)N[C@H](C(=O)Nc1snnc1-c1ccccc1)C(C)(C)OC)C1CCCCC1 [Compound 2]
IC50 [1]: 11100 nM
Ki [1]: 1980 nM
IC50 [2]: 256 nM
Ki [2]: 55 nM
IC50 [3]: 279 nM
Ki [3]: 64 nM
IC50 [4]: 192 nM
Ki [4]: 30 nM

CN[C@@H](C)C(=O)N[C@H](C(=O)N[C@H](C(=O)Nc1snnc1-c1ccccc1)C(C)(C)S(C)(=O)=O)C1CCCCC1 [Compound 10]
IC50 [1]: 36200 nM
Ki [1]: 6440 nM
IC50 [2]: 1130 nM
Ki [2]: 244 nM
IC50 [3]: 2400 nM
Ki [3]: 547 nM
IC50 [4]: 700 nM
Ki [4]: 108 nM
